pEC50, pIC50, pKd: −log10 of the molar value. One block for each sequence: values may come before it.
Tests used:
[1] = target: anti-CD28 scFv (disulfide) (SEQ ID NO: 10); experiment: anti-CD28 scFv (disulfide) binding to peptides, ELISA; conditions: Table 27
Procedure: Peptides were evaluated for their ability to bind to ant-CD28 Fab (SEQ ID NOs: 696.697) or anti-CD28 scFv (disulfide) (SEQ ID NO: 10) in a standard ELISA format as described above.

[2] = system: anti-CD28 Fab (SEQ ID NOs: 696, 697); experiment: Kinetic binding of peptides to anti-CD28 Fab, BLI; conditions: for Off rate t½: Table 26; for kdis / kon: Table 30, BLI
[3] = system: anti-CD28 Fab (SEQ ID NOs: 696, 697); experiment: anti-CD28 Fab binding to peptides, ELISA; conditions: for pEC50: anti-CD28 Fab
[4] = target: PSMA Fab (SEQ ID NOs: 19, 20); experiment: PSMA Fab binding to peptides, ELISA; conditions: for pEC50 / Binding EC50: PSMA Fab binding to biotinylated peptide, ELISA
Procedure: Peptides of Table 9 were evaluated for their ability to bind to PSMA Fab in a standard enzyme linked immunosorbent assay (ELISA) format. […] PSMA Fab diluted in buffer was then added to the peptide captured plates. Bound antibody was detected using a standard horse radish peroxidase conjugate secondary antibody.

[5] = target: PSMA Fab (SEQ ID NOs: 19, 20) binding to the PSMA antigen; experiment: Inhibition of PSMA Fab binding to PSMA by peptides, competition ELISA (incl. alanine scanning); parameters: key to Mutation Status: tolerant (T); somewhat tolerant (ST); intolerant (IT); conditions: for pIC50: PSMA Fab fixed at 0.3 nM, peptide 0-100 μM
Procedure: PSMA Fab fixed at 0.3 nanomolar (nM) concentration was pre-incubated with 0-100 micromolar (μM) titrated peptides. After a short pre-incubation period, the mixture of titrated peptide with fixed PSMA Fab were added to the PSMA antigen coated plates. After a short incubation on the plates, bound PSMA Fab was detected with a standard horse radish peroxidase conjugated secondary antibody.
The tables also designate each alanine mutation as tolerant (T), somewhat tolerant (ST), or intolerant (IT) based on changes in binding inhibition ability relative to the non-mutated peptide. Cys-5 and Cys-11 of peptide-179 and peptide-180 were not mutated.

[6] = system: PSMA Fab (SEQ ID NOs: 19, 20); experiment: Kinetic binding of peptides to PSMA Fab, BLI
Procedure: Kinetic binding of the peptides of Table 9 to PSMA Fab (SEQ ID NOs: 19, 20) was evaluated using biolayer interferometry (BLI). Briefly, biotinylated peptides were loaded onto a streptavidin coated Octet® V SAX biosensor, quenched in biocytin, and baselined in buffer. […] After a short association period, sensors were transferred into buffer and the dissociation of bound Ab-1 was measured. Association and dissociation signals were recorded in real time and analyzed using a 1:1 binding model within the instrument software. Analysis using a 1:1 binding model enabled the calculation of the on and off rate constant as well as affinity, Kn.

[7] = target: anti-CD28 scFv (SEQ ID NO: 9); experiment: Kinetic binding of anti-CD28 scFv to peptides, bio-layer interferometry (Octet RED96); conditions: Table 36; anti-CD28 scFv titrated 100-12.5 nM, 200 nM peptide loaded
Procedure: (§1) Briefly, streptavidin biosensors were loaded with biotinylated peptides and baselined in buffer. […] After a short association period, sensors were transferred into buffer and the dissociation of bound anti-CD28 scFv was measured. The timing and steps of the experiment are shown in the accompanying table. Association and dissociation signals were recorded in real time and analyzed using a 1:1 binding model within the instrument software. Analysis using a 1:1 binding model enabled the calculation of the on and off rate constants as well as affinity, KD.
as §1, with “KD. FIGS. 70A-70F illustrate kinetic binding of anti-CD28 scFv binding to peptides as measured by Octet. FIGS. 70G-70U illustrate kinetic binding of peptides to the anti-CD28 scFv as measured by Octet.” for “KD.”

Sequence of PSMA Fab (SEQ ID NOs: 19, 20) (as listed by the source): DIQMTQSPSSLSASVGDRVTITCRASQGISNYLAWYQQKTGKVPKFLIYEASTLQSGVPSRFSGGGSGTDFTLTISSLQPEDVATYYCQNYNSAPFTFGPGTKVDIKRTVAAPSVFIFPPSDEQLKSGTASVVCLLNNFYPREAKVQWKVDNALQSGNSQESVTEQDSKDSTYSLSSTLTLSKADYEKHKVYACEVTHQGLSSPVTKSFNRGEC
Sequence of PSMA Fab (SEQ ID NOs: 19, 20) (as listed by the source): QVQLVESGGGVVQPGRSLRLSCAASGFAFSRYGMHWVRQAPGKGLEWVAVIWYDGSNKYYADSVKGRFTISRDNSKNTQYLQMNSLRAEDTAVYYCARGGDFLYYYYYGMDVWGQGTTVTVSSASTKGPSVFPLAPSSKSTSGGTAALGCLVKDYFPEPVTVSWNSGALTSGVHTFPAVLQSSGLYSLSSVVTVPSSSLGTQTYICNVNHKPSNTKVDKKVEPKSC
Sequence of PSMA Fab (SEQ ID NOs: 19, 20) binding to the PSMA antigen (Q04609 whole entry partner): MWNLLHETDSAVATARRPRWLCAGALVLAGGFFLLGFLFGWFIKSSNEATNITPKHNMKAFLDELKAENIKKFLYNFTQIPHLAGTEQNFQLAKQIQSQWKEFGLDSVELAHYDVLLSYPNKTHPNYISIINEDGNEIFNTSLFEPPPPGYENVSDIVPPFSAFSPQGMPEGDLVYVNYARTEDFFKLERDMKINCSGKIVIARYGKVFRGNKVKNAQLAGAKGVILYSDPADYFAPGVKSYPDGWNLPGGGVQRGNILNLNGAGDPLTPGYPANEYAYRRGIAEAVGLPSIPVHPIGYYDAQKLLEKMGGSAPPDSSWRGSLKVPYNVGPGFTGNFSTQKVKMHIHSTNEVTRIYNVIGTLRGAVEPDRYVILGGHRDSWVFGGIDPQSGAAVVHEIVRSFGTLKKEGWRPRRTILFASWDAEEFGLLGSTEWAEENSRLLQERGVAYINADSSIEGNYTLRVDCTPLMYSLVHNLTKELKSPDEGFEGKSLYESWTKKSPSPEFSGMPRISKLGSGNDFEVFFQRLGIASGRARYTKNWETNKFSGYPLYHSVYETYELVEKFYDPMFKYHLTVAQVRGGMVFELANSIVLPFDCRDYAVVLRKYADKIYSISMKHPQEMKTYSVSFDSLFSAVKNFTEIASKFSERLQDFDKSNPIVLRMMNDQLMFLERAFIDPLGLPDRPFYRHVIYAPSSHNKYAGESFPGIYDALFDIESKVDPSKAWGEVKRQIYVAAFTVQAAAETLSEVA
Sequence of anti-CD28 scFv (disulfide) (SEQ ID NO: 10) (as listed by the source): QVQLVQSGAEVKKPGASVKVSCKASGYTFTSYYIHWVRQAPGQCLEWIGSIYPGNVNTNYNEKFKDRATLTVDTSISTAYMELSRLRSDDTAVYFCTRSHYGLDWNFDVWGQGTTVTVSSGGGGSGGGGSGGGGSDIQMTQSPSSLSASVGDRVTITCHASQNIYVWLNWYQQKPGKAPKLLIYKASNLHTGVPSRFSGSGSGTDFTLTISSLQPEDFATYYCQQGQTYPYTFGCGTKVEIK
Sequence of anti-CD28 Fab (SEQ ID NOs: 696, 697) (as listed by the source): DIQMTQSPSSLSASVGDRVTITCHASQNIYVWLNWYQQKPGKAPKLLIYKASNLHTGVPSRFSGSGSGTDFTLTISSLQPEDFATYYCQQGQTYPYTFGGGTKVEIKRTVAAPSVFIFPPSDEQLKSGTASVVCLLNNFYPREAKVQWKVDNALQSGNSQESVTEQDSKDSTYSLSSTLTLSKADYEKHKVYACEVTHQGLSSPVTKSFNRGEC
Sequence of anti-CD28 Fab (SEQ ID NOs: 696, 697) (as listed by the source): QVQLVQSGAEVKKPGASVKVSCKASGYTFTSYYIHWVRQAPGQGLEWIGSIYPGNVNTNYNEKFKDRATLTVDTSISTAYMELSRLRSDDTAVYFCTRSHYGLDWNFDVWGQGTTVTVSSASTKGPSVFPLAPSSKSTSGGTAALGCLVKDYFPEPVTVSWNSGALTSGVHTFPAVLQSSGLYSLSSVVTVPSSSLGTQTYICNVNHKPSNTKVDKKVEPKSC
Sequence of anti-CD28 scFv (SEQ ID NO: 9) (as listed by the source): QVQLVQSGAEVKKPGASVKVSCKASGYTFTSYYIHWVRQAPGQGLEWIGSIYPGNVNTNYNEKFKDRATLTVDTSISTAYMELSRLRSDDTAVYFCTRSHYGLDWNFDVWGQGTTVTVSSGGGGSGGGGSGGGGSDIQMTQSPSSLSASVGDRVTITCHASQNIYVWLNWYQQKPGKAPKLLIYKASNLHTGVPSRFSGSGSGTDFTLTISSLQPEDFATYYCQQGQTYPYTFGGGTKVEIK

Sequence: YCAGHAWQYINKCL [Peptide-87]
- pEC50 [1]: 6.81
- Off rate t½ [2]: 0.7 min
- kdis [2]: 0.0202 s⁻¹
- kon [2]: 10000 M⁻¹ s⁻¹
- binding to the anti-CD28 Fab [3]: strong binding
- pEC50 ([3]; Table 24): 7.31
- pEC50 ([3]; Table 26): 7.51

Sequence: GCQYPWAFDAMSCP [Peptide-80]
- pEC50 [1]: < 6.00
- pEC50 ([3]; Table 24): < 6.00

Sequence: WECLKYTEANACTY [Peptide-76]
- pEC50 [1]: < 6.00
- pEC50 ([3]; Table 24): < 6.00

Sequence: YCEGHLPEYIEKCL [Peptide-120]
- kdis [2]: 0.0239 s⁻¹
- kon [2]: 25800 M⁻¹ s⁻¹
- pEC50 ([3]; Table 26): 8.51

Sequence: YCEGHLPEYRNKCL [Peptide-132]
- kdis [2]: 0.0138 s⁻¹
- pEC50 ([3]; Table 26): 8.49

Sequence: ICQWIGATNAWVCY [Peptide-164]
- pIC50 ([5]; Table 37): < 4.00
- Binding EC50 ([4]; Table 37): high background

Sequence: YCAGMSTIQLWLKC [Peptide-94]
- pEC50 [1]: < 6.00
- pEC50 ([3]; Table 24): < 6.00

Sequence: IAVLCQPNWMCAGF [Peptide-180]
- Off rate t1/2 ([6]; Table 38, 1:1 binding model): <1 min
- Off rate t1/2 ([6]; Table 39, 1:1 binding model): 0.75 min
- binding to the PSMA Fab [4]: strong binding
- pEC50 ([4]; Table 38): 7.48

Sequence: SIPCIPRDWLCPIK [Peptide-163]
- pEC50 ([4]; Table 37): < 6.00

Sequence: PDCHTILFKPWCVR [Peptide-90]
- pEC50 [1]: < 6.00
- pEC50 ([3]; Table 24): < 6.00

Sequence: IRCVGEGHDLVCIF [Peptide-162]
- pEC50 ([4]; Table 37): < 6.00

Sequence: NCWWHDFRAGHVVC [Peptide-161]
- pEC50 ([4]; Table 37): < 6.00

Sequence: DCWWMFESYPGRCI [Peptide-86]
- pEC50 [1]: < 6.00
- pEC50 ([3]; Table 24): < 6.00

Sequence: DCFYAADIHWNYCN [Peptide-157]
- pEC50 ([4]; Table 37): < 6.00

Sequence: YWSCFQIPFTCFYF [Peptide-75]
- pEC50 [1]: < 6.00
- pEC50 ([3]; Table 24): < 6.00

Sequence: ECHWSMWAVGHACF [Peptide-83]
- pEC50 [1]: < 6.00
- pEC50 ([3]; Table 24): < 6.00

Sequence: YCAGHSPINIGKCL [Peptide-84]
- pEC50 [1]: < 6.00
- pEC50 ([3]; Table 24): 6.47

Sequence: YCEGHLPEYLAKCL [Peptide-127]
- kdis [2]: 0.0118 s⁻¹
- pEC50 ([3]; Table 26): 8.77

Sequence: WCWDYKLWVPMTCP [Peptide-85]
- pEC50 [1]: < 6.00
- pEC50 ([3]; Table 24): < 6.00

Sequence: WCWDYREWVPMTCP [Peptide-82]
- pEC50 [1]: < 6.00
- pEC50 ([3]; Table 24): < 6.00

Sequence: PLCGTEEVWWECRL [Peptide-166]
- pEC50 ([4]; Table 37): < 6.00

Sequence: YCEGHLPEYREKCL [Peptide-126]
- kdis [2]: 0.0191 s⁻¹

Sequence: FMCLPQNPHPLCFK [Peptide-77]
- pEC50 [1]: < 6.00
- pEC50 ([3]; Table 24): < 6.00

Sequence: YWYCSPSIVRCVLV [Peptide-89]
- pEC50 [1]: < 6.00
- pEC50 ([3]; Table 24): < 6.00

Sequence: ACDTYFAGMINECF [Peptide-79]
- pEC50 [1]: 7.14
- pEC50 ([3]; Table 24): 7.01

Sequence: WCWDYKLWVPTQCP [Peptide-81]
- pEC50 [1]: < 6.00
- pEC50 ([3]; Table 24): < 6.00

Sequence: SCFSFARLEVVPCD [Peptide-159]
- pEC50 ([4]; Table 37): < 6.00

Sequence: TCLRFADLAIIHCD [Peptide-160]
- pEC50 ([4]; Table 37): < 6.00

Sequence: YCEGHLPEYIQKCL [Peptide-134]
- Off rate t½ [2]: 0.9 min
- kdis [2]: 0.0115 s⁻¹

Sequence: MDWCPRDLWVHCFA [Peptide-41]
- pKd [7]: 7.37
- kdis [7]: 0.00154 s⁻¹
- kon [7]: 36400 M⁻¹ s⁻¹
- pEC50 [1]: 7.01
- pEC50 ([3]; Table 24): 6.31

Sequence: YCEGHAPEYIAKCL [Peptide-121]
- kdis [2]: 0.028 s⁻¹
- kon [2]: 33700 M⁻¹ s⁻¹
- pEC50 ([3]; Table 26): 8.15

Sequence: DCPWLSGFSRPLLC [Peptide-93]
- pEC50 [1]: < 6.00
- pEC50 ([3]; Table 24): < 6.00

Sequence: YECHQGLFHRWCVN [Peptide-158]
- Binding EC50 ([4]; Table 37): high background

Sequence: WCWYYREWVPMTCP [Peptide-88]
- pEC50 [1]: < 6.00
- pEC50 ([3]; Table 24): < 6.00

Sequence: YCEGHLPEYIWKCL [Peptide-135]
- Off rate t½ [2]: 0.9 min
- pEC50 ([3]; Table 26): 8.68

Sequence: WICDKSGSIMLCRA [Peptide-91]
- pEC50 [1]: < 6.00
- pEC50 ([3]; Table 24): < 6.00

Sequence: PDCQTILFKPWCVR [Peptide-78]
- pEC50 [1]: < 6.00
- pEC50 ([3]; Table 24): < 6.00

Sequence: HLFCWEGSDRCAWV [Peptide-165]
- pEC50 ([4]; Table 37): < 6.00

Sequence: IAVACQPNWMCAGF [Peptide-253]
- Mutation Status ([5]; Table 41, alanine scanning of Peptide-180, change in binding inhibition relative to non-mutated peptide): ST

Continued, in another order:

- pEC50 ([4]; Table 37): < 6.00
Sequence: ACHSLVLKHHLQKC [Peptide-176]

- pEC50 ([4]; Table 37): < 6.00
Sequence: FGHCAGSPVFCAYW [Peptide-168]

- pEC50 ([4]; Table 37): < 6.00
Sequence: FCQWIEATNAWLCY [Peptide-170]

- pEC50 ([4]; Table 38): < 5.52
Sequence: YECHQGLFHRWCVN [Peptide-185]

- pEC50 ([4]; Table 38): < 5.52
Sequence: IECAYMTDQRFWCW [Peptide-188]

- Off rate t1/2 ([6]; Table 39, 1:1 binding model): <1 min
Sequence: MCQWDELNYWMDCD [Peptide-202]

- pEC50 ([4]; Table 37): < 6.00
Sequence: NCFFAADIHWNFCT [Peptide-169]

- pEC50 ([4]; Table 37): < 6.00
Sequence: EGCLTLVDGRAWCW [Peptide-173]

- pEC50 ([4]; Table 38): < 5.52
Sequence: ILCGLYEALVSECG [Peptide-187]
- pIC50 ([5]; Table 38): < 4.00

- Off rate t1/2 ([6]; Table 39, 1:1 binding model): <1 min
Sequence: SKLLCVPPWMCYHV [Peptide-194]

- pEC50 ([4]; Table 38): < 5.52
Sequence: SIPCIPRDWLCPIK [Peptide-182]
- pIC50 ([5]; Table 38): < 4.00

- pEC50 ([4]; Table 37): < 6.00
Sequence: HCKFHDYHSWYMCY [Peptide-175]

- Off rate t1/2 ([6]; Table 39, 1:1 binding model): <1 min
Sequence: QCTWNEKTWWMECE [Peptide-204]

- pEC50 ([4]; Table 37): < 6.00
Sequence: NAHCWLWVPAHCRV [Peptide-167]
- pIC50 ([5]; Table 37): < 4.00

- pEC50 ([4]; Table 37): < 6.00
Sequence: PDCVYHSFWGYSCR [Peptide-178]

- pEC50 ([4]; Table 37): < 6.00
Sequence: MEYCSFHRFTCVLW [Peptide-174]

- pEC50 ([4]; Table 37): < 6.00
Sequence: SCGWLRGEEFGWWC [Peptide-177]

- Off rate t1/2 ([6]; Table 39, 1:1 binding model): <1 min
Sequence: MCQWDKINYWMDCD [Peptide-205]

- pEC50 ([4]; Table 38): < 5.52
Sequence: FVCWTFGEHIKVCR [Peptide-186]
- pIC50 ([5]; Table 38): < 4.00

- pEC50 ([4]; Table 37): < 6.00
Sequence: FCGWMDGDVFWFCG [Peptide-171]

- pEC50 ([4]; Table 37): < 6.00
Sequence: FCNWVDGDVWVVCK [Peptide-172]

- pEC50 ([4]; Table 38): < 5.52
Sequence: SCGWLRGEEFGWWC [Peptide-190]
- pIC50 ([5]; Table 38): < 4.00

- pEC50 ([4]; Table 38): 8.52
Sequence: PELRCVPFWMCSFN [Peptide-181]

- pEC50 ([4]; Table 38): < 5.52
Sequence: IRCVGEGHDLVCIF [Peptide-184]
- pIC50 ([5]; Table 38): < 4.00

- pEC50 ([4]; Table 38): < 5.52
Sequence: HCLGPALGPVDGDC [Peptide-189]
- pIC50 ([5]; Table 38): < 4.00
